# Tests used:
# [1] = system: pancreatic cancer xenograft PAXF 736; assay: clonogenic assay, single agents and combination studies; type: cell-based, human; details: (X261, X295)
# Description: (§1) The cell mixture was passed through sieves of 200 μm and 50 μm mesh size and washed thereafter twice with PBS. The percentage of viable cells was determined in a Neubauer counting chamber using trypan blue exclusion.
# (§2) 8×10^3 to 1,6×10^4 cells were added to 0.2 ml of the same culture medium together with 0.4% agar and placed in already coated 24-multiwell dishes. Test substances were applied by continuous exposure (drug overlay) in 0.2 ml medium. Every dish included six control wells containing the vehicle- and drug-treated groups in triplicate at six concentrations.
# (§3) Cultures were incubated at 37° and 7% CO2 in a humidified atmosphere for 5 to 15 days (depending on the doubling time of the tumor stem cells) and monitored for colony growth using an inverted microscope. Within this period, in vitro tumor growth led to the formation of colonies with a diameter of ≧50 μm. At the time of maximum colony formation counts were performed with an automatic image analysis system (OMNICOM Fas IV, Biosys GmbH). […] Drug effects were expressed in terms of the percentage of surviving cells, obtained by comparison of the mean number of colonies in the treated plates with the mean colony count of the untreated controls (test-versus-control-group value, T/C=colony countTreated Group*100/colony countControl Group).
# (§4) Coefficient of variation in the control group ≦50%. IC50 and IC70 values were determined by plotting compound concentration versus cell survival rate. Mean IC50 and IC70 values were calculated according to the formula: [formula]
# (§5) with x=specific tumor xenograft and n=total number of tumor xenografts studied. If an IC50 or IC70 value could not be determined within the examined dose range, the lowest or highest concentration studied was used for the calculation.
# (§6) Each experiment included the chemotherapeutic agents in 6 concentrations, selenium in 2 concentrations (3 and 30 μM), and the combination of all doses with selenium at 3 and 30 μM. All compounds and combinations were studied in triplicates. […] Each experiment was performed twice.
# (§7) T/Cexpectd(A+B)=T/C(A)×T/C(B)/100
# (§8) For a zero-interactive drug combination (additivity of drug effects) T/Cexpected(A+B)[…]T/Cobserved(A+B). A drug combination is synergistic if T/Cobserved(A+B) is statistically significant[…]T/Cexpected(A+B). Statistical significance was determined by the T-test.
# [2] = system: pancreatic cancer xenograft PAXF 546; assay: as above; type: cell-based, human; details: observed; X261, X295
# Description: as §1, §2, §3, §4, §5, §6, §7, §8
smiles,measurement,setting,value
Nc1ccn([C@@H]2O[C@H](CO)[C@@H](O)C2(F)F)c(=O)n1 [Gemcitabine],T/C in % at a gemcitabine concentration (μM) of 1 × 10^−1,[1]; gemcitabine alone,30 ± 8%
same,T/C in % at a gemcitabine concentration (μM) of 1 × 10^−2,[1]; gemcitabine alone,71± 10%
same,T/C in % at a gemcitabine concentration (μM) of 1 × 10^−3,[1]; gemcitabine alone,77 ± 13%
same,T/C in % at a gemcitabine concentration (μM) of 1 × 10^−4,[1]; gemcitabine alone,84 ± 12%
same,T/C in % at a gemcitabine concentration (μM) of 1 × 10^−5,[1]; gemcitabine alone,78 ± 14%
same,T/C in % at a gemcitabine concentration (μM) of 1 × 10^−6,[1]; gemcitabine alone,89 ± 11%
same,T/C in % at a gemcitabine concentration (μM),[2],85 ± 15%
same,T/C in % at a gemcitabine concentration (μM) of 1.0,[2],30 ± 6%
same,T/C in % at a gemcitabine concentration (μM) of 1 × 10^−1,[2],48 ± 8%
same,T/C in % at a gemcitabine concentration (μM) of 1 × 10^−2,[2],61± 11%
same,T/C in % at a gemcitabine concentration (μM) of 1 × 10^−3,[2],83 ± 12%
same,T/C in % at a gemcitabine concentration (μM) of 1 × 10^−4,[2],80 ± 12%
same,T/C in % at a gemcitabine concentration (μM) of 1 × 10^−5,[2],73 ± 20%
CO[C@@]12[C@H](COC(N)=O)C3=C(C(=O)C(C)=C(N)C3=O)N1C[C@@H]1N[C@@H]12 [Mitomycin C],T/C in % at a mitomycin C concentration (μM) of 1 × 10^−1,[1]; mitomycin C alone,11 ± 7%
same,T/C in % at a mitomycin C concentration (μM) of 1 × 10^−2,[1]; mitomycin C alone,30± 7%
same,T/C in % at a mitomycin C concentration (μM) of 1 × 10^−3,[1]; mitomycin C alone,46 ± 8%
same,T/C in % at a mitomycin C concentration (μM) of 1 × 10^−4,[1]; mitomycin C alone,56 ± 11%
same,T/C in % at a mitomycin C concentration (μM) of 1 × 10^−5,[1]; mitomycin C alone,58 ± 10%
same,T/C in % at a mitomycin C concentration (μM) of 1 × 10^−6,[1]; mitomycin C alone,77 ± 13%
same,T/C in % at a mitomycin C concentration (μM),[2],87 ± 11%
same,T/C in % at a mitomycin C concentration (μM) of 1.0,[2],5 ± 2%
same,T/C in % at a mitomycin C concentration (μM) of 1 × 10^−1,[2],57 ± 8%
same,T/C in % at a mitomycin C concentration (μM) of 1 × 10^−2,[2],80± 12%
same,T/C in % at a mitomycin C concentration (μM) of 1 × 10^−3,[2],70 ± 13%
same,T/C in % at a mitomycin C concentration (μM) of 1 × 10^−4,[2],70 ± 10%
same,T/C in % at a mitomycin C concentration (μM) of 1 × 10^−5,[2],84 ± 14%

# From patent US6656509B1, “Combination of selenium-containing compounds with cytostatics” (Biosyn Arzneimittel GmbH, priority 1998, dated 2003)
